Experimental data published in patent publication US20160106439A1, “PNEUMATIC TOURNIQUET” (BIONUMERIK PHARMACEUTICALS, INC., priority 2013, published 2016).
Entries after “also recorded” stand apart in the source; their conditions may differ.

Columns and labels:
[1] = target: RNR subunit 1 (Homo sapiens, UniProt P23921); experiment: Whole protein MS of RNR subunit 1; format: binding; settings: whole protein Mass Spectroscopy
Text: RNR1 contains a total of sixteen (16) cysteine residues and at least five (5) of these cysteine residues are required for catalysis, including: Cys218, Cys429, Cys444, Cys787, and Cys790. It is hypothesized that the Tavocept-derived mesna adducts identified on the RNR1 protein using whole protein Mass Spectroscopy (see, FIG. 49) may alter or modulate RNR activity.

[2] = tested on: bovine brain microtubule protein (α-/β-tubulin); experiment: Microtubule protein polymerization assay (OD350) and electron microscopy; format: biochemical
[3] = tested on: human cancer cell lines; experiment: Interference with paclitaxel- and platinum-induced cytotoxicity; format: cell-based
Text: Tavocept mediates the non-enzymatic xenobiotic modification of sulfur-containing amino acid residues (e.g., cysteine) on proteins. As an engineered, non-naturally occurring agent (i.e., xenobiotic), Tavocept is autocatalytic and requires no protein cofactor to cause the xenobiotic modification of cysteine, but appears to be specific for cysteine residues located within a particular structural context (i.e., not all cysteines in a protein are so modified). Tavocept-mediated, xenobiotic modification represents a novel mechanism of action for a cancer treating agent and can be compared to a degree with post-translational modifications of cysteine residues in proteins (see, Table 3, below).

[4] = target: human peroxiredoxin 4 (PRX4) (Homo sapiens, UniProt Q13162); experiment: Tavocept-derived mesna adducts on Prx 4 (MS, X-ray crystallography)
[5] = target: ROS1 kinase (Homo sapiens, UniProt P08922); experiment: ROS1 kinase assays; format: biochemical; parameters: Recombinant human ROS1 kinase (residues 1883-2347), containing an N-terminal GST tag; purchased SignalChem; host or cells: Sf9 insect cells (baculovirus)
Sequence of ROS1 kinase (P08922 1883-2347): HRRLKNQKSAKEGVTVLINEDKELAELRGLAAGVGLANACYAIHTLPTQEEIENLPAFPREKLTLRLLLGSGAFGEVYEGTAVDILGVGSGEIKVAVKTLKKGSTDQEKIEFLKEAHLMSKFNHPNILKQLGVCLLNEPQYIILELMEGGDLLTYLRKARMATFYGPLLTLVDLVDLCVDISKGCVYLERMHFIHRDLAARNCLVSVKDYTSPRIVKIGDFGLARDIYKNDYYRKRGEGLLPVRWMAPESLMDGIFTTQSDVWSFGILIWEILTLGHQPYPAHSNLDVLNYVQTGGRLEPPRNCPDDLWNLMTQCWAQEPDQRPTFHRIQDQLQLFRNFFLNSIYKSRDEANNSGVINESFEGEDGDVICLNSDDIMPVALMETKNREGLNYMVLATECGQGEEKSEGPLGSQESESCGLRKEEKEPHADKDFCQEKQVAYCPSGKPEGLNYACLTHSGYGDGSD

Sequence of human peroxiredoxin 4 (PRX4) (Q13162 79-271 limits assumed): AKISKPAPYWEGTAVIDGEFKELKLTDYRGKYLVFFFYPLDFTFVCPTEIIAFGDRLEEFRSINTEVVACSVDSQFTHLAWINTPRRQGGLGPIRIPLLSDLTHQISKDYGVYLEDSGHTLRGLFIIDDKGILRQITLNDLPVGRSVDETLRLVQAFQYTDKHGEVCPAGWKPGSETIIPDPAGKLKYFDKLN
Sequence of RNR subunit 1 (P23921 whole entry): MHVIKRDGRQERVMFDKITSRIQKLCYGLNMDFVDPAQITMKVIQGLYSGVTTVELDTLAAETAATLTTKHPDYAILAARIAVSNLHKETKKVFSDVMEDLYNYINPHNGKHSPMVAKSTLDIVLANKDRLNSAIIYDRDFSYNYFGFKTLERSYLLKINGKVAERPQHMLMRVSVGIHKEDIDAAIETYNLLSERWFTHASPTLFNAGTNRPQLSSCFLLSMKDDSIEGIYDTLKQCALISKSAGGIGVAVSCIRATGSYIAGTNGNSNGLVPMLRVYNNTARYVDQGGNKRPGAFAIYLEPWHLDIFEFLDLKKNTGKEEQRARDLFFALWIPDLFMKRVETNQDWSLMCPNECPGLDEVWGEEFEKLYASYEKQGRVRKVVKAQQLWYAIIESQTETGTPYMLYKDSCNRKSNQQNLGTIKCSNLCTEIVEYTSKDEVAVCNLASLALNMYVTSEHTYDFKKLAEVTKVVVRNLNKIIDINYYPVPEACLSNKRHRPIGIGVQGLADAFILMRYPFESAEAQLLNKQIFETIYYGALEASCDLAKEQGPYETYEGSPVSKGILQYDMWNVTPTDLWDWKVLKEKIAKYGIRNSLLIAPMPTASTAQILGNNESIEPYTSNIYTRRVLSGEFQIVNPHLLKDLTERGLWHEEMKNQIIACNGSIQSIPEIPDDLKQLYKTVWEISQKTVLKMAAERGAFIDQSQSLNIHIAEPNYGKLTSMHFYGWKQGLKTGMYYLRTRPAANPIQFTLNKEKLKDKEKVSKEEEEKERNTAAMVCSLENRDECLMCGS

**Q.** Which results are given for `O=S(=O)([O-])CCSSCCS(=O)(=O)[O-].[Na+].[Na+]` [Tavocept, disodium 2,2′-dithio-bis-ethane sulfonate]?
**A.** number of Tavocept-derived mesna adducts on RNR1 cysteine residues [1]: ≤ 8; effect on paclitaxel-induced hyperpolymerization of MTP [2]: normalizes; inhibition of paclitaxel promoted microtubule protein polymerization ([2]; 12 mM Tavocept, paclitaxel 10 μM): approximately 50%; Tavocept concentration giving final polymerization equal to GTP control ([2]; MTP exposed to paclitaxel): ≥ 6 mM; Tavocept concentration inhibiting paclitaxel (10 μM) promoted hyperpolymerization ([2]; paclitaxel 10 μM): > 1 mM; Tavocept concentration giving net polymerization equivalent to GTP/MgCl2 only control ([2]; paclitaxel/GTP/MgCl2 10 μM/1 mM/1 mM): 6 to 8 mM; microtubules visible on electron microscopy grids ([2]; preincubated 20 minutes on ice, with and without paclitaxel, qualitative): reduction in the abundance of microtubules; effect on GTP-catalyzed microtubule protein polymerization ([2]; preincubated with microtubule protein on ice 20 minutes, 37° C.): dose-dependent inhibitory effect; also recorded: inhibit GTP-catalyzed polymerization; also recorded: concentration dependent manner; interference with paclitaxel- and platinum-induced cytotoxicity [3]: not to interfere; number of Tavocept-derived mesna moieties on Prx 4 ([4]; Mass Spectroscopy after reaction with Tavocept): 2; Prx 4 cysteine bound by Tavocept-derived mesna moiety ([4]; X-ray, 2.3 Å, 40 mM Tavocept): Cys124; Inhibition of ROS1 kinase [5]: directly inhibit ROS1 kinase in a time-dependent manner; Effect on Crizotinib inhibition of ROS1 kinase ([5]; Tavocept incubated with ROS1 kinase prior to initiation of the kinase assays): potentiation of Crizotinib inhibition; Modification of ROS1 kinase ([5]; time dependent): BNP7787 xenobiotically modifies ROS1 kinase in
